Laboratory results taken from US20250354993A1, “METHODS OF TREATING AND DIAGNOSING LUNG CANCER” (Yeda Research and Development Co. Ltd., priority 2019, published 2025).

Columns and labels:
[1] = system: PSME4; assay: Western blot of A549 cells treated with mizoribine; format: cell-based; settings: purine synthesis blocked using mizoribine, FIG. 26B
Procedure: FIG. 26A-B. PSME4 expression correlates with increased Pyrimidine and decreased Purine metabolites. (A) The log 2 fold change in abundance of cellar metabolites in PSME4 high or low expressing cell lines (x axis) is plotted against the significance of the change. […] (B) A549 cells were treated with mizoribine for the time indicated and then separated by SDS-PAGE and analyzed by Western blot probed with the following antibodies: PSME4, LMP7 (PSMB8), PSMB10, pana (recognized all PSMA subunits), and β actin. Cell Culture and Treatments: A549 cells were grown in DMEM supplemented with 10% fetal bovine serum, 1% Penicillin/streptomycin and L-glutamine (2 mM) (Biological industries) at 37° C. with 5% CO2. Cells were treated with 400 U*mL−1 TNFαand/or 200 U*mL-1 IFNγ (peprotech) for the indicated amount of time. Antibodies for Western blotting, immunoprecipitation and immunohistochemistry: Primary antibodies to the following were used: PSMA1 (hybridoma). PANα (PSMA1-7; Enzo, BML-PW8195-0025), PSME4 (Millipore Sigma HPA060922 and Proteintech 18799-1-AP), LMP7 (Cell signaling 13635), PSMB10 (Thermo Fisher PAS19146) and β-Actin (Abcam ab170325) The following secondary antibodies were used: goat anti-mouse HRP (115-035-003) and goat anti-rabbit HRP (111-035-003) (Jackson Labs).

[2] = system: proteasome; assay: Proteasome Cleavage Reporter Assay in A549 active cell extract; format: biochemical
Procedure: FIGS. 33A-D Active cell extract was prepared from A549 lung cancer cells, cells treated with TNFα and IFNγ (TI) and cells treated with TI and recombinant PA200. As a control, MG132 proteasome inhibitor was added. The extracts were then incubated with LLVY-AMC (SEQ ID NO: 1) (A) or PAL-AMC (SEQ ID NO: 2) (B) for 3.5 hours and the relative fluorescence units (RFU) was measured every minute. The RFU for each condition using LLVY-AMC (SEQ ID NO: 1) (C) or PAL-AMC (SEQ ID NO: 2) (D) is shown at 1.5 and 3.5 hours across the different repeats of the experiment.
FIGS. 34A-D. Active cell extract was prepared from A549 lung cancer cells and cells treated with TNFα and IFNγ (TI). To each of these PA200 was added at a concentration of 4.7 nm (1:1) or 0.47 nm (1:10). As a control, MG132 proteasome inhibitor was added. The extracts were then incubated with LLE-AMC (SEQ ID NO: 3) (A), NPND-AMC (SEQ ID NO: 4) (B), LLVY-AMC (SEQ ID NO: 1) (C) or LLE-BNA (SEQ ID NO: 5) (D) for 3.5 hours and the relative fluorescence units (RFU) was measured every minute.
Proteasome Cleavage Reporter Assay: A549 cells, stimulated with TNFα and IFNγ for the indicated times, were collected and flash frozen. Frozen cells were re-suspended in lysis buffer (25 mM sucrose, 50 mM TRIS pH 7.4, 5 mM MgCl2, 0.5 mM EDTA, 2 mM ATP, 1 mM DTT). Lysates were passed 10 times through a 27 G needle, incubated on ice for 15 min and the centrifuged at 21130rcf for 10 min. Protein concentrations were measured using the Coomassie Plus (Bradford) Assay Kit (Pierce, ThermoFisher Scientific). […] of cellular lysate was incubated with 0.1 mM suc-LLVY-AMC (SEQ ID NO: 1), ac-PAL-AMC (SEQ ID NO: 2), Z-LLE-AMC (SEQ ID NO: 3) (Biotest), ac-NPND-AMC (SEQ ID NO: 4) and Z-LLE-βNA (SEQ ID NO: 5) (bachem) as per protocol and fluorescence levels were measured over time using a BioTek Synergy H1 plate reader (Ex: 360 nm, Em: 460 nm). The background protease activity was determined for each condition from an identically prepared sample with the addition of Mg132 proteasome inhibitor (0.04 mM; Calbiochem). […]

[3] = A549 extract, PA200 added at 4.7 nm (1:1) or 0.47 nm (1:10), FIG. 34A-D

Compound	PSME4 expression [1]	effect on the TNFα and IFNγ induced increase in proteasome cleavage ([2]; A549 cells treated with TNFα and IFNγ plus recombinant PA200, LLVY-AMC or PAL-AMC, FIG. 33A-D)	chymotryptic cleavage (suc-LLVY-AMC) [2, 3]	constitutive proteasome caspase like activity (NPND-AMC + LLE-βNA) [2, 3]
NC(=O)c1ncn([C@@H]2O[C@H](CO)[C@@H](O)[C@H]2O)c1O [mizoribine]	decrease in PSME4 expression	–	–	–
recombinant PSME4: recombinant Proteasome activator complex subunit 4 (PA200) added to A549 cell extract	–	partially reduced	reduction of activity	induces the activity
